From the NIST ThermoML archive (doi:10.1021/je700261b)
± gives the expanded uncertainty stated by the source.

Experiment: xn = mol fraction of the nth substance listed
Conditions: Liquid

CCCCO [butan-1-ol] + O=C=O
Conditions	mass density [kg/m3]
313.16 K, 11059 kPa, x2 = 0.5965	838.66 ± 0.51
313.16 K, 11082 kPa, x2 = 0.8663	813.86 ± 0.57
313.16 K, 12061 kPa, x2 = 0.8663	821.6 ± 0.57
313.16 K, 12075 kPa, x2 = 0.5965	840.6 ± 0.51
313.16 K, 13043 kPa, x2 = 0.8663	828.71 ± 0.57
313.16 K, 13069 kPa, x2 = 0.5965	842.49 ± 0.52
313.16 K, 14076 kPa, x2 = 0.8663	835.52 ± 0.56
313.16 K, 14098 kPa, x2 = 0.5965	844.39 ± 0.52
313.16 K, 15059 kPa, x2 = 0.5965	846.11 ± 0.53
313.16 K, 15061 kPa, x2 = 0.8663	841.57 ± 0.56
313.16 K, 16037 kPa, x2 = 0.5965	847.81 ± 0.53
313.16 K, 16043 kPa, x2 = 0.8663	847.15 ± 0.56
313.16 K, 17032 kPa, x2 = 0.5965	849.52 ± 0.53
313.16 K, 17052 kPa, x2 = 0.8663	852.59 ± 0.56
313.16 K, 18048 kPa, x2 = 0.5965	851.21 ± 0.54
313.16 K, 18056 kPa, x2 = 0.8663	857.69 ± 0.55
313.16 K, 19039 kPa, x2 = 0.8663	862.42 ± 0.55
313.16 K, 19055 kPa, x2 = 0.5965	852.88 ± 0.54
313.16 K, 20027 kPa, x2 = 0.8663	866.99 ± 0.55
313.16 K, 20044 kPa, x2 = 0.5965	854.46 ± 0.55
313.16 K, 21042 kPa, x2 = 0.5965	856.04 ± 0.55
313.16 K, 21068 kPa, x2 = 0.8663	871.52 ± 0.55
313.16 K, 22034 kPa, x2 = 0.8663	875.6 ± 0.55
313.16 K, 22053 kPa, x2 = 0.5965	857.62 ± 0.56
313.16 K, 23031 kPa, x2 = 0.5965	859.12 ± 0.56
313.16 K, 23061 kPa, x2 = 0.8663	879.74 ± 0.55
313.16 K, 24038 kPa, x2 = 0.5965	860.62 ± 0.57
313.16 K, 24054 kPa, x2 = 0.8663	883.63 ± 0.55
313.16 K, 25015 kPa, x2 = 0.8663	887.21 ± 0.56
313.16 K, 25036 kPa, x2 = 0.5965	862.12 ± 0.57
323.05 K, 1017 kPa, x2 = 0.0251	789.88 ± 0.46
323.05 K, 2015 kPa, x2 = 0.0251	790.73 ± 0.47
323.05 K, 3003 kPa, x2 = 0.0251	791.59 ± 0.48
323.05 K, 4007 kPa, x2 = 0.0251	792.48 ± 0.48
323.05 K, 5026 kPa, x2 = 0.0251	793.33 ± 0.49
323.05 K, 5975 kPa, x2 = 0.0251	794.14 ± 0.5
323.05 K, 7085 kPa, x2 = 0.0251	795.08 ± 0.51
323.05 K, 7991 kPa, x2 = 0.0251	795.85 ± 0.52
323.05 K, 9003 kPa, x2 = 0.0251	796.68 ± 0.52
323.05 K, 10032 kPa, x2 = 0.0251	797.56 ± 0.53
323.05 K, 10996 kPa, x2 = 0.0251	798.32 ± 0.54
323.05 K, 11029 kPa, x2 = 0.9698	630.03 ± 1.2
323.05 K, 12005 kPa, x2 = 0.9698	671.01 ± 1.1
323.05 K, 12028 kPa, x2 = 0.0251	799.15 ± 0.55
323.05 K, 12996 kPa, x2 = 0.9698	700.08 ± 0.96
323.05 K, 13030 kPa, x2 = 0.0251	799.93 ± 0.56
323.05 K, 14024 kPa, x2 = 0.9698	723.36 ± 0.87
323.05 K, 14030 kPa, x2 = 0.0251	800.72 ± 0.57
323.05 K, 15018 kPa, x2 = 0.0251	801.45 ± 0.58
323.05 K, 15024 kPa, x2 = 0.9698	741.89 ± 0.82
323.05 K, 16009 kPa, x2 = 0.9698	757.4 ± 0.78
323.05 K, 16017 kPa, x2 = 0.0251	802.24 ± 0.59
323.05 K, 17001 kPa, x2 = 0.9698	771.14 ± 0.76
323.05 K, 17014 kPa, x2 = 0.0251	802.97 ± 0.59
323.05 K, 18016 kPa, x2 = 0.9698	783.62 ± 0.74
323.05 K, 18025 kPa, x2 = 0.0251	803.71 ± 0.6
323.05 K, 19020 kPa, x2 = 0.9698	794.82 ± 0.72
323.05 K, 19034 kPa, x2 = 0.0251	804.49 ± 0.61
323.05 K, 20048 kPa, x2 = 0.9698	805.21 ± 0.7
323.05 K, 20052 kPa, x2 = 0.0251	805.21 ± 0.62
323.05 K, 21014 kPa, x2 = 0.0251	805.95 ± 0.63
323.05 K, 21055 kPa, x2 = 0.9698	814.54 ± 0.69
323.05 K, 22017 kPa, x2 = 0.9698	822.92 ± 0.68
323.05 K, 22027 kPa, x2 = 0.0251	806.68 ± 0.64
323.05 K, 23002 kPa, x2 = 0.0251	807.38 ± 0.65
323.05 K, 23087 kPa, x2 = 0.9698	831.58 ± 0.67
323.05 K, 24035 kPa, x2 = 0.0251	808.13 ± 0.66
323.05 K, 24055 kPa, x2 = 0.9698	838.92 ± 0.66
323.05 K, 25023 kPa, x2 = 0.0251	808.84 ± 0.67
323.07 K, 1981 kPa, x2 = 0.0857	794.04 ± 0.47
323.07 K, 3013 kPa, x2 = 0.0857	795.05 ± 0.47
323.07 K, 4009 kPa, x2 = 0.0857	795.99 ± 0.48
323.07 K, 5021 kPa, x2 = 0.0857	796.91 ± 0.49
323.07 K, 6010 kPa, x2 = 0.0857	797.83 ± 0.5
323.07 K, 6995 kPa, x2 = 0.0857	798.74 ± 0.5
323.07 K, 7985 kPa, x2 = 0.0857	799.59 ± 0.51
323.07 K, 9047 kPa, x2 = 0.0857	800.55 ± 0.52
323.07 K, 10028 kPa, x2 = 0.0857	801.4 ± 0.53
323.07 K, 11003 kPa, x2 = 0.0857	802.22 ± 0.54
323.07 K, 12005 kPa, x2 = 0.0857	803.07 ± 0.55
323.07 K, 12995 kPa, x2 = 0.0857	803.91 ± 0.55
323.07 K, 14273 kPa, x2 = 0.0857	805.01 ± 0.56
323.07 K, 15019 kPa, x2 = 0.0857	805.58 ± 0.57
323.07 K, 15998 kPa, x2 = 0.0857	806.41 ± 0.58
